The results in this text go back to patent US20060014737A1, “Methods of treatment of amyloidosis using bi-aryl aspartyl protease inhibitors” (priority 2004, published 2006).

Assay [1] has as its system A-beta. Put plainly: Efficacy of compounds to inhibit A-beta concentration. The format is in vivo, rat. Particulars: % inhibition of A-beta vs vehicle control. How it is done:
Efficacious compounds of the present invention are those able to decrease the amount of A-beta produced compared to a control, where beta-secretase mediated cleavage is observed and measured in the absence of the compounds. Detection of efficacy can be by analysis of A-beta levels, for example, by immunoassay, fluorometric or chromogenic assay, HPLC, or other means of detection. The efficacy of the compounds of formula (I) was determined as a percentage inhibition corresponding to A-beta concentrations for tissue treated and untreated with a compound of formula (I).
The invention encompasses compounds of formula (I) that are efficacious. Efficacy is calculated as a percentage of concentrations as follows: Efficacy=(1−(total A-beta in dose group/total A-beta in vehicle control))*100% wherein the “total A-beta in dose group” equals the concentration of A-beta in the tissue, (e.g., rat brain) treated with the compound, and the “total A-beta in vehicle control” equals the concentration of A-beta in the tissue, yielding a % inhibition of A-beta production. Statistical significance is determined by p-value <0.05 using the Mann Whitney t-test. See, for example, Dovey et al., J. Neurochemistry, 2001, 76:173-181.

In assay [2] the test system is catD versus beta-secretase (BACE). Nature of the assay: Selectivity for BACE versus catD (ratio of IC50 values). Particulars: each value an average of four runs; multiple values = more than one experiment. In kind it is biochemical. How it is done:
(§1) Investigation of potential beta-secretase inhibitors produced compounds with increased selectivity for beta-secretase over other aspartyl proteases such as cathepsin D (catD), cathepsin E (catE), HIV protease, and renin. Selectivity was calculated as a ratio of inhibition (IC50) values in which the inhibition of beta-secretase was compared to the inhibition of other aspartyl proteases. […] Alternatively, a compound is selective when its binding affinity is greater for its desired target (e.g., beta-secretase) versus a secondary target (e.g., catD). Accordingly, methods of treatment include administering selective compounds of formula (I) having a lower IC50 value for inhibiting beta-secretase, or greater binding affinity for beta-secretase, than for other aspartyl proteases such as catD, catE, HIV protease, or renin. A selective compound is also capable of producing a higher ratio of desired effects to adverse effects, resulting in a safer method of treatment.
The compounds of formula (I) can be selective for beta-secretase versus catD. […] Selectivity is reported as the ratio of IC50(catD):IC50(BACE).
(§2) In the following examples, each value is an average of four experimental runs and multiple values for one compound indicate that more than one experiment was conducted.

Assay [3] deals with catE versus beta-secretase (BACE). Put plainly: Selectivity for BACE versus catE (ratio of IC50 values). In kind it is biochemical. Particulars: each value an average of four runs; multiple values = more than one experiment. How it is done:
as §1
The compounds of formula (I) can be selective for beta-secretase versus catE. […] Selectivity is reported as the ratio of IC50(catE):IC50(BACE).
as §2

Several values for one entry are separate records, joined by “and”; a condition that tells them apart may be missing. Equal values may be shown once. Some results are limits rather than exact numbers.

In the case of `CC(=O)NC(Cc1cc(F)cc(F)c1)C(O)CNCc1cc(CC(C)(C)C)ccc1-n1ccnc1` (centres unmarked) [Example 41.1, N-{1-(3,5-Difluoro-benzyl)-3-[5-(2,2-dimethyl-propyl)-2-imidazol-1-yl-benzylamino]-2-hydroxy-propyl}-acetamide], in assay [1] (cortex), the “Efficacy (% Inhibition, 100 mg/kg) cortex” value is recorded as 15%. The “Efficacy (% Inhibition, 100 mg/kg) plasma” value in assay [1] (plasma) turned out to be 47%. Turning to `CC(=O)NC(Cc1cc(F)cc(F)c1)C(O)CNCc1cc(CC(C)(C)C)ccc1-n1cnc(CO)c1` (centres unmarked) [Example 41.3, N-(1-(3,5-difluorophenyl)-3-hydroxy-4-(2-(4-(hydroxymethyl)-1H-imidazol-1-yl)-5-neopentylbenzylamino)butan-2-yl)acetamide], in assay [2], the “Selectivity IC50(catD)/IC50(BACE)” value is 1.6. With `CC(=O)NC(Cc1cc(F)cc(F)c1)C(O)CNCc1cc(CC(C)(C)C)ccc1-n1cnc(C)c1` (centres unmarked) [Example 41.4, N-{1-(3,5-Difluoro-benzyl)-3-[5-(2,2-dimethyl-propyl)-2-(4-methyl-imidazol-1-yl)-benzylamino]-2-hydroxy-propyl}-acetamide], in assay [2], the “Selectivity IC50(catD)/IC50(BACE)” value is given as 1.7.

Regarding `CC(=O)NC(Cc1cc(F)cc(F)c1)C(O)CNCc1cc(CC(C)(C)C)ccc1-n1cnc2ccccc21` (centres unmarked) [Example 41.5, N-[3-[2-Benzoimidazol-1-yl-5-(2,2-dimethyl-propyl)-benzylamino]-1-(3,5-difluoro-benzyl)-2-hydroxy-propyl]-acetamide], the “Selectivity IC50(catD)/IC50(BACE)” value in assay [2] is 3.6 and 3.0. Still for that read-out and setting: the figure for `CC(=O)NC(Cc1cc(F)cc(F)c1)C(O)CNCc1cc(CC(C)(C)C)ccc1-n1nccn1` (centres unmarked) [Example 41.7, N-(1-(3,5-difluorophenyl)-3-hydroxy-4-(5-neopentyl-2-(2H-1,2,3-triazol-2-yl)benzylamino)butan-2-yl)acetamide] is above 33.1.

With `CC(=O)NC(Cc1cc(F)cc(F)c1)C(O)CNCc1cc(CC(C)(C)C)ccc1-n1cnc(CO)c1` (centres unmarked) [Example 41.9, N-(1-(3,5-difluorophenyl)-3-hydroxy-4-(2-(4-(hydroxymethyl)-1H-imidazol-1-yl)-5-neopentylbenzylamino)butan-2-yl)acetamide], in assay [3], the “Selectivity IC50(catE)/IC50(BACE)” value is 1.2. The same measure, in the same setting: with `CC(=O)NC(Cc1cc(F)cc(F)c1)C(O)CNCc1cc(CC(C)(C)C)ccc1-n1nccn1` (centres unmarked) [Example 41.11, N-(1-(3,5-difluorophenyl)-3-hydroxy-4-(5-neopentyl-2-(2H-1,2,3-triazol-2-yl)benzylamino)butan-2-yl)acetamide] the figure was 1.4.
